From patent US20250066835A1 (priority 2021, published 2025) come the findings set out here.

Holding throughout (format): cell-based
Test [1] relates to colistin-sensitive Pseudomonas aeruginosa strain. The experiment in a line: PTA staining / SEM backscattered electron image analysis of colistin-treated bacteria over time (FIG. 7). To be noted: colistin 2 mg/L, 37°C, initial concentration 10^6/ml. On the procedure: (§1) A Pseudomonas aeruginosa strain whose colistin sensitivity is known from an MIC value measured by a method of related art and a Pseudomonas aeruginosa strain whose colistin resistance is known are used. A bacterial solution suspended in a medium at initial concentration of 10^6/ml is treated with colistin of 2 mg/L, which is concentration that distinguishes between sensitive bacteria and resistant bacteria by the method of related art, is treated and cultured at 37° C., and a certain amount of the bacterial solution is sampled over time.
A polycarbonate track-etched membrane having a hole diameter of 0.2 μm is used as specimen equipment for the SEM observation of bacteria, and bacteria are uniformly collected in a certain area on the membrane. Conductivity is given to the specimen by pre-vaporizing platinum-palladium on a surface of the membrane.
After washing a medium component on a bacterial collection surface with physiological saline, bacteria are treated and fixed for 5 minutes with a glutaraldehyde fixing solution of 2.5% having a protein cross-linking effect in order to prevent the morphological change of the bacteria. After washing the excess fixing solution with water, the bacteria are treated with the PTA aqueous solution having the weight concentration of 10% for 2 minutes and stained. After washing the excess stain with water, the bacteria are dried on the track-etched membrane to form a specimen for the SEM observation.
SEM observation conditions are set to an acceleration voltage of 5 kV, backscattered electron detection, and magnification of 7,000 times. […]
(§2) Next, SEM observation is performed on each specimen from which the series of backscattered electron image (701) is obtained and a specimen in the control group prepared at the same timing, and twenty-five images per specimen and images of 300 to 500 bacterial cells are acquired. The number of images taken and the number of bacterial cells to be imaged are not limited to the above-described number as long as reproducibility of quantitative analysis can be ensured. […]

In test [2] the test system is colistin-resistant Pseudomonas aeruginosa strain. Nature of the test: PTA staining / SEM backscattered electron image analysis of colistin-treated bacteria over time. Particulars: colistin 2 mg/L, 37°C, after 60 minutes. On the procedure:
as §1
A polycarbonate track-etched membrane having a hole diameter of 0.2 μm is used as specimen equipment for the SEM observation of bacteria, and bacteria are uniformly collected in a certain area on the membrane. Conductivity is given to the specimen by pre-vaporizing platinum-palladium on a surface of the membrane. […]
as §2

In test [3] the test system is Pseudomonas aeruginosa strain. The experiment in a line: Electronic staining with PTA aqueous solution and SEM observation after antibacterial agent treatment (FIG. 6). To be noted: cultured at 37°C for 30 minutes, 10% PTA aqueous solution, 5 kV backscattered electron image. Here is the method: As an example, in FIG. 6, a Pseudomonas aeruginosa strain is used as a material, bacteria in a control group not treated with the antibacterial agent and bacteria in a test group treated with antibacterial agent colistin are cultured at 37° C. for 30 minutes, the bacteria are collected on a track-etched membrane and fixed with glutaraldehyde of 2.5%, a specimen is prepared by performing electronic staining for 2 minutes by using a PTA aqueous solution having weight concentration of 10% as a stain and a platinum blue aqueous solution as a comparison, and a backscattered electron image is obtained by SEM observation at an acceleration voltage of 5 kV.
In the specimen stained with the PTA aqueous solution, an image of bacteria having low image brightness is observed in the control group, and an image of bacteria having high image brightness is observed in the test group. On the other hand, in the specimen stained with the platinum blue aqueous solution, the image brightness of the bacteria in both the control group and the test group is high, and no significant difference is observed between the control group and the test group.

Consider colistin, for which the “ratio of the microbe 1 (corresponds to viability)” value is listed as 80% in test [1] (after 8 minutes), 60% in test [1] (after 30 minutes), 0% in test [1] (after 60 minutes) and “about 95%” in test [2]. In addition, in test [3], the “PTA staining intensity / image brightness of treated bacteria” value was “strong PTA staining”.
